Reference: patent US5756545A, “Biphenysulfonamide matrix metal alloproteinase inhibitors” (priority 1997, dated 1998)
Each block holds one compound with its values, some of them ahead of it.

Experiments:
Type in all cases: biochemical
[1] = biological target: gelatinase A-catalytic domain; assay: gelatinase A catalytic domain hydrolysis of thiopeptolide, GA CD (T); conditions: thiopeptolide substrate
Excerpt: (§1) Table I below presents inhibitory activity for representative invention compounds of Formula I. In the table, GA CD (T) refers to gelatinase A-catalytic domain hydrolysis of thiopeptolide substrate; GA CD (Gel) refers to gelatinase A-catalytic domain hydrolysis of gelatin substrate; SCD (T) refers to stromelysin catalytic domain hydrolysis of thiopeptolide.

[2] = biological target: gelatinase A-catalytic domain; assay: gelatinase A catalytic domain hydrolysis of gelatin, GA CD (Gel); conditions: gelatin substrate
Excerpt: as §1

full-length collagenase = biological target: T1, full-length collagenase (Homo sapiens, UniProt P03956); assay: full-length collagenase hydrolysis of thiopeptolide substrate (FLC); conditions: full-length enzyme
T1 construct: full-length collagenase hydrolysis of thiopeptolide substrate (FLC)
T1 sequence (P03956 100-469): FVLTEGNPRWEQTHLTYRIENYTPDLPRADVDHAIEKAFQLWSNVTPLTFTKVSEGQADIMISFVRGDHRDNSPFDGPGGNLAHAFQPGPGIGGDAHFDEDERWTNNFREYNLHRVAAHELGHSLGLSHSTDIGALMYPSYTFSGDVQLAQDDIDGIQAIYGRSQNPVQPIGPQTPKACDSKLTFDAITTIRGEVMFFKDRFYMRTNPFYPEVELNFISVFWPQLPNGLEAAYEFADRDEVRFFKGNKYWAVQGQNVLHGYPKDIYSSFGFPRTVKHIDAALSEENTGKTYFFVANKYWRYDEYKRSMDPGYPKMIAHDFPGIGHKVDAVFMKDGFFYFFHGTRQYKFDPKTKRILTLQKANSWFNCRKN
Excerpt: The compounds were additionally evaluated for their ability to inhibit full-length collagenase hydrolysis of thiopeptolide substrate (FLC) and full-length gelatinase B (FLGB) hydrolysis of thiopeptolide.

[3] = biological target: T2, stromelysin catalytic domain (Homo sapiens, UniProt P08254); assay: stromelysin catalytic domain hydrolysis of thiopeptolide, SCD (T); conditions: thiopeptolide substrate
T2 construct: stromelysin catalytic domain hydrolysis of thiopeptolide
T2 sequence (P08254 100-272 limits assumed): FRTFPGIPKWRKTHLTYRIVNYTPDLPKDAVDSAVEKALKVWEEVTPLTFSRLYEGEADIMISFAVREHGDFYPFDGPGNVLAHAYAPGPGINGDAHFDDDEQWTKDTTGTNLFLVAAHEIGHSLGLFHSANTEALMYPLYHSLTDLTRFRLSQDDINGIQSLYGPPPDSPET
Excerpt: as §1

SMILES: CC(C)[C@H](NS(=O)(=O)c1ccc(-c2ccc(F)cc2)cc1)C(=O)O [Example 16, (S)-2-(4'-Fluoro-biphenyl-4-sulfonylamino)-3-methyl-butyric Acid]
IC50 [1]: 51 nM
IC50 [2]: 94 nM

SMILES: CC(C)[C@H](NS(=O)(=O)c1ccc(-c2ccc(Cl)cc2)cc1)C(=O)O [Example 2, (S)-2-(4'-Chloro-biphenyl-4-sulfonylamino)-3-methyl-butyric Acid]
IC50 (full-length collagenase): 7500 nM

SMILES: CC(C)[C@H](NS(=O)(=O)c1ccc(-c2ccc(C(F)(F)F)cc2)cc1)C(=O)O [Example 19, (S)-3-Methyl-2-(4'-trifluoromethyl-biphenyl-4-sulfonylamino)-butyric Acid]
IC50 [3]: 14 nM

SMILES: CC(C)[C@H](NS(=O)(=O)c1ccc(-c2ccc(C#N)cc2)cc1)C(=O)O [Example 5, (S)-2-(4'-Cyano-biphenyl-4-sulfonylamino)-3-methyl-butyric Acid]
IC50 [1]: 32 nM
IC50 [2]: 157 nM

SMILES: CC(C)[C@H](NS(=O)(=O)c1ccc(-c2cccc(Br)c2)cc1)C(=O)O [Example 7, (S)-2-(3'-Bromo-biphenyl-4-sulfonylamino)-3-methyl-butyric Acid]
IC50 [1]: 731 nM
IC50 [2]: 1300 nM

The remaining compounds from weak to strong by IC50 [1], led by results:

IC50 [1]: 26 nM
IC50 [2]: 45 nM
SMILES: O=C(O)[C@H](Cc1ccccc1)NS(=O)(=O)c1ccc(-c2ccc(Br)cc2)cc1 [Example 10, (S)-2-(4'-Bromo-biphenyl-4-sulfonylamino)-3-phenyl-propionic Acid]

IC50 [1]: 21 nM
IC50 [2]: 79 nM
SMILES: O=C(O)CNS(=O)(=O)c1ccc(-c2ccc(Br)cc2)cc1 [Example 12, (4'-Bromo-biphenyl-4-sulfonylamino)-acetic Acid]

IC50 [1]: 19 nM
IC50 [2]: 22 nM
SMILES: C[C@H](NS(=O)(=O)c1ccc(-c2ccc(Br)cc2)cc1)C(=O)O [Example 13, (S)-2-(4'-Bromo-biphenyl-4-sulfonylamino)-propionic Acid]

IC50 [1]: 15 nM
IC50 [2]: 29 nM
SMILES: CC(C)C[C@H](NS(=O)(=O)c1ccc(-c2ccc(Br)cc2)cc1)C(=O)O [Example 14, (S)-2-(4'-Bromo-biphenyl-4-sulfonylamino)-4-methyl-pentanoic Acid]

IC50 [1]: 6 nM
IC50 [2]: 19 nM
SMILES: CC(C)[C@H](NS(=O)(=O)c1ccc(-c2ccc(Br)cc2F)cc1)C(=O)O [Example 8, (S)-2-(4'-Bromo-2'-fluoro-biphenyl-4-sulfonylamino)-3-methyl-butyric Acid]

IC50 [1]: 2 nM
IC50 [2]: 14 nM
SMILES: COc1ccc(-c2ccc(S(=O)(=O)N[C@H](C(=O)O)C(C)C)cc2)cc1 [Example 15, (S)-2-(4'-Methoxy-biphenyl-4-sulfonylamino)-3-methyl-butyric Acid]
